Measured values reported in patent US20070128217A1 (priority 2003, published 2007).

What was measured:
[1] = tested on: antibodies in sera from SARS patients (sera 1a, 1b, 2, 6, 37, 62, London, SARS-yellow, SARS-green); type: binding, human; parameters: Binding of serum 6 to linear peptides of protein X1 of SARS-CoV Urbani / Binding of serum 37 to linear peptides of protein X1 of SARS-CoV Urbani / Binding of serum 6 to looped/cyclic peptide (PEPSCAN-ELISA) / Binding of serum 37 to looped/cyclic peptide (PEPSCAN-ELISA) / Binding of serum 37 to looped/cyclic peptides of protein X1 of SARS-CoV Urbani / Binding of serum 6 to linear peptides of protein X2 / Binding of serum 37 to linear peptides of protein X2 / Binding of serum 37 to looped/cyclic peptides of protein X2 of SARS-CoV Urbani / Binding of serum 6 to linear peptides of protein M of SARS-CoV Urbani / Binding of serum 37 to linear peptides of protein M of SARS-CoV Urbani / Binding of serum 6 to looped/cyclic peptides of protein M of SARS-CoV Urbani / Binding of serum 37 to looped/cyclic peptides of protein M of SARS-CoV Urbani / Binding of serum 6 to linear peptides of protein X3 of SARS-CoV Urbani / Binding of serum 37 to linear peptides of protein X3 of SARS-CoV Urbani / Binding of serum 37 to looped/cyclic peptides of protein X3 of SARS-CoV Urbani / Binding of serum 6 to linear peptides of protein X4 of SARS-CoV Urbani / Binding of serum 37 to linear peptides of protein X4 of SARS-CoV Urbani / Binding of serum 37 to looped/cyclic peptides of protein X4 of SARS-CoV Urbani / Binding of serum 6 to linear peptides of protein X5 of SARS-CoV Urbani / Binding of serum 37 to linear peptides of protein X5 of SARS-CoV Urbani / Binding of serum 37 to looped/cyclic peptides of protein X5 of SARS-CoV Urbani / Binding of serum 6 to linear peptides of protein N of SARS-CoV Urbani / Binding of serum 37 to linear peptides of protein N of SARS-CoV Urbani / Binding of serum 6 to linear peptide (PEPSCAN-ELISA) / Binding of serum 1a to looped/cyclic peptides of protein N of SARS-CoV Urbani / Binding of serum 1b to looped/cyclic peptides of protein N of SARS-CoV Urbani / Binding of serum 2 to looped/cyclic peptides of protein N of SARS-CoV Urbani / Binding of serum 6 to looped/cyclic peptides of protein N of SARS-CoV Urbani / Binding of serum 37 to looped/cyclic peptides of protein N of SARS-CoV Urbani / Binding of serum 62 to looped/cyclic peptides of protein N of SARS-CoV Urbani / Binding of serum London to looped/cyclic peptides of protein N of SARS-CoV Urbani / Binding of serum SARS-green to looped/cyclic peptides of protein N of SARS-CoV Urbani: unit not given here
[2] = tested on: control sera (pooled serum of ten healthy LUMC hospital workers; commercial negative donor pooled serum from the Dutch bloodbank); type: binding, human; parameters: Binding of Control serum LUMC to linear peptides / Binding of Control serum Blood-bank to linear peptides / Binding of Control serum LUMC to looped peptides / Binding of Control Serum Blood-Bank to Looped peptides / Binding of Control serum LUMC to linear peptides of the protein M of SARS-CoV Urbani / Binding of Control serum Blood-bank to linear peptides of the protein M of SARS-CoV Urbani / Binding of Control serum LUMC to looped peptides of the protein M of SARS-CoV Urbani / Binding of Control Serum Blood-Bank to Looped peptides of the protein M of SARS-CoV Urbani: unit not given here
[3] = tested on: rabbit serum obtained by immunizing a rabbit with the SARS-CoV strain Frankfurt 1; type: binding; parameters: Binding of a rabbit serum to linear peptides / Binding of a rabbit serum to looped peptides / Rabbit serum linear peptides / Rabbit serum looped peptides / Binding of a rabbit serum to linear peptides of protein N of SARS-CoV Urbani (Rabbit serum linear peptides) / Binding of a rabbit serum to looped/cyclic peptides of protein N of SARS-CoV Urbani (Rabbit serum looped peptides): unit not given here

Sequence | Binding of serum 1a to linear peptides of protein X2 [1] | Binding of serum 1a to looped/cyclic peptides of protein X2 of SARS-CoV Urbani [1] | Binding of serum 1b to linear peptides of protein X2 [1] | Binding of serum 1b to looped/cyclic peptides of protein X2 of SARS-CoV Urbani [1] | Binding of serum 2 to linear peptides of protein X2 [1] | Binding of serum 2 to looped/cyclic peptides of protein X2 of SARS-CoV Urbani [1] | Binding of serum 6 to linear peptides of protein X2 [1] | Binding of serum 6 to looped/cyclic peptides of protein X2 of SARS-CoV Urbani [1] | Binding of serum 37 to linear peptides of protein X2 [1] | Binding of serum 37 to looped/cyclic peptides of protein X2 of SARS-CoV Urbani [1] | Binding of serum 62 to linear peptides of protein X2 [1] | Binding of serum 62 to looped/cyclic peptides of protein X2 of SARS-CoV Urbani [1] | Binding of serum London to linear peptides of protein X2 [1] | Binding of serum London to looped/cyclic peptides of protein X2 of SARS-CoV Urbani [1] | Binding of Control Serum Blood-Bank to Looped peptides [2] | Binding of Control serum Blood-bank to linear peptides [2] | Binding of Control serum LUMC to linear peptides [2] | Binding of Control serum LUMC to looped peptides [2] | Binding of a rabbit serum to linear peptides [3] | Binding of a rabbit serum to looped peptides [3] | other results
KLLQTLVLKMLHSSS | 0.6 | 0.5 | 0.6 | 0.5 | 0.4 | 0.3 | 0.3 | 0.5 | 0.5 | 0.4 | 0.6 | 0.6 | 0.4 | 0.4 | 0.7 | 0.7 | 0.3 | 0.6 | 0.2 | 0.4 | Binding of serum SARS-green to linear peptides of protein X2 [1]: 0.5; Binding of serum SARS-green to looped/cyclic peptides of protein X2 of SARS-CoV Urbani [1]: 0.3; Binding of serum SARS-yellow to linear peptides of protein X2 [1]: 0.4; Binding of serum SARS-yellow to looped/cyclic peptides of protein X2 of SARS-CoV Urbani [1]: 0.4
KNPLLYDANYFVCWH |  |  |  |  |  |  |  |  |  |  |  |  |  |  | 0.6 | 0.4 | 0.4 | 0.7 | 0.1 | 0.7 | Binding of serum 1a to linear peptides of protein X1 of SARS-CoV Urbani [1]: 0.8; Binding of serum 1a to looped/cyclic peptide (PEPSCAN-ELISA) [1]: 0.6; Binding of serum 1b to linear peptides of protein X1 of SARS-CoV Urbani [1]: 0.5; Binding of serum 1b to looped/cyclic peptide (PEPSCAN-ELISA) [1]: 0.5; Binding of serum 2 to linear peptides of protein X1 of SARS-CoV Urbani [1]: 0.5; Binding of serum 2 to looped/cyclic peptide (PEPSCAN-ELISA) [1]: 0.4; Binding of serum 6 to linear peptides of protein X1 of SARS-CoV Urbani [1]: 0.4; Binding of serum 6 to looped/cyclic peptide (PEPSCAN-ELISA) [1]: 0.4; Binding of serum 37 to linear peptides of protein X1 of SARS-CoV Urbani [1]: 0.6; Binding of serum 37 to looped/cyclic peptide (PEPSCAN-ELISA) [1]: 0.6; Binding of serum 62 to linear peptides of protein X1 of SARS-CoV Urbani [1]: 0.5; Binding of serum 62 to looped/cyclic peptide (PEPSCAN-ELISA) [1]: 0.6; Binding of serum London to linear peptides of protein X1 of SARS-CoV Urbani [1]: 0.3; Binding of serum London to looped/cyclic peptide (PEPSCAN-ELISA) [1]: 0.2; Binding of serum SARS-green to linear peptides of protein X1 of SARS-CoV Urbani [1]: 0.4; Binding of serum SARS-green to looped/cyclic peptide (PEPSCAN-ELISA) [1]: 0.3; Binding of serum SARS-yellow to linear peptides of protein X1 of SARS-CoV Urbani [1]: 0.3; Binding of serum SARS-yellow to looped/cyclic peptide (PEPSCAN-ELISA) [1]: 0.4
KTHRMCKYTQSTALQ | 0.7 | 0.4 | 0.5 | 0.4 | 0.6 | 0.2 | 0.5 | 0.4 | 0.7 | 0.2 | 0.6 | 0.4 | 0.5 | 0.2 | 0.5 | 0.6 | 0.5 | 0.4 | 0.3 | 0.3 | Binding of serum SARS-green to linear peptides of protein X2 [1]: 0.5; Binding of serum SARS-green to looped/cyclic peptides of protein X2 of SARS-CoV Urbani [1]: 0.2; Binding of serum SARS-yellow to linear peptides of protein X2 [1]: 0.8; Binding of serum SARS-yellow to looped/cyclic peptides of protein X2 of SARS-CoV Urbani [1]: 0.2
